For twelve molecules, EC50 results are on record in patent publication US20240336608A1, “IL4I1 INHIBITORS AND METHODS OF USE” (Merck Sharp & Dohme LLC, priority 2023, published 2024).

The experiment concerns the target T1, recombinant IL4I1 (Homo sapiens, UniProt Q96RQ9).
T1 construct: purchased R&D Systems 5684-AO-020
T1 sequence (Q96RQ9 22-567): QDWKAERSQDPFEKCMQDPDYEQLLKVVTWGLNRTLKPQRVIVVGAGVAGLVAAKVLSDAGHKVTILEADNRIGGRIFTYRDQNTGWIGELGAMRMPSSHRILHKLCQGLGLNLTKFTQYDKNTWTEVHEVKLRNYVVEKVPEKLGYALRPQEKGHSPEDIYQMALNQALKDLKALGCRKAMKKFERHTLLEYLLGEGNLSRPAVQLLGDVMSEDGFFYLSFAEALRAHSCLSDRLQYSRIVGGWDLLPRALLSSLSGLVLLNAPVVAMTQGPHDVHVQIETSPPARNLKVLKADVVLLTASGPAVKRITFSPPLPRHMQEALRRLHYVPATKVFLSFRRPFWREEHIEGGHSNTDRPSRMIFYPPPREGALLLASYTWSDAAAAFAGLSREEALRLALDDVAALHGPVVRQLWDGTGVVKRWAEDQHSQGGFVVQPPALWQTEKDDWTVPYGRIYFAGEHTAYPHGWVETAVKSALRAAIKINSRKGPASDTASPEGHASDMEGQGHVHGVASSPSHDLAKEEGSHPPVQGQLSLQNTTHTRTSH
Description: IL4I1 Enzymatic Assay (Amplex Red/HRP coupled detection of H2O2, fluorescence). In kind it is biochemical. The settings on record: 1 nM recombinant IL4I1; four-hour pre-incubation with compound; 1 mM each Phe, Tyr, Trp; ten-point titration. As to the method: Interleukin 4 inducible protein 1 (IL4I1) is an L-amino oxidase that catalyzes the oxidation of aromatic residues (Phe, Trp and Tyr): L-amino acid+H2O+O2→2-oxo acid+NH3+H2O2. Equal molar of H2O2 and the corresponding alpha-ketoacid are produced when IL4I1 and substrate are added. In this assay, the hydrogen peroxide generated by IL4I1 is then detected through a coupled reaction with Amplex Red (10-acetyl-3,7-dihydroxyphenoxazine) and […] (HRP) to produce Resorufin product that could be detected in the form of fluorescence signals. The assessment of the inhibitory effect of small molecules (EC50) on IL4I1 is measured by the effectiveness of the compounds to inhibit the production of H202.
Using this assay, the potency (EC50) of each compound was determined from a ten-point (1:3 serial dilution) titration curve using the following outlined procedure. To each well of a black flat-bottom Greiner (Cat #781076) 384 well-plate, 125 nL of compound (0.5% DMSO in final assay volume of 25 μL) was dispensed, followed by the addition of 12.5 μL of 1× assay buffer (50 mM Hepes 7.0 and 0.005% Tween20 (Sigma, Cat #P8341; low peroxide grade)) containing 2 nM of recombinant IL4I1 (R&D Systems, Cat #5684-AO-020). Plates were placed in an ambient temperature humidified chamber for a four-hour pre-incubation with compound. Subsequently, each reaction was initiated by the addition of 12.5 μL 1× assay buffer containing 2 mM of each aromatic amino acids (Phe/Tyr/Trp), 0.1 mM Amplex Red and 2 U/mL of HRP. The final reaction in each well of 25 μL consists of 1 nM of IL4I1, 1 mM of each residue (Phe, Tyr and Trp), 0.05 mM Amplex Red and 1 U/mL of HRP. It should be noted that the concentrations of Amplex Red and HRP used here are in excess such that the conversion of H2O2 to Resorufin product occurs instantaneously and non-rate limiting. Reactions were allowed to proceed for 120 minutes followed by fluorescence readout on a Spectramax with the following set parameters: 544 nm excitation/590 nm emission, 570 nm cutoff (EnVision is an alternative reader). Dose-response curves were generated by plotting percent effect (% inhibition; Y-axis) vs. Log10 compound concentrations (X-axis). EC50 values were calculated using a non-linear regression, four-parameters sigmoidal dose-response model and are shown in Table 16.
By EC50 is commonly meant the concentration giving half of the maximal effect. Consider `CC(CC(F)(F)F)n1cc(C(=O)NCc2nnc(-c3ccccc3)s2)nn1` (single isomer, unassigned) [Example 63, N-((5-phenyl-1,3,4-thiadiazol-2-yl)methyl)-1-(4,4,4-trifluorobutan-2-yl)-1H-1,2,3-triazole-4-carboxamide], for which the concentration giving a half-maximal response (EC50) amounted to 18 nM.
Consider `CC(CC(F)(F)F)n1cc(C(=O)NCc2nnc(-c3ccccc3)s2)nn1` (single isomer, unassigned) [Example 64, N-((5-phenyl-1,3,4-thiadiazol-2-yl)methyl)-1-(4,4,4-trifluorobutan-2-yl)-1H-1,2,3-triazole-4-carboxamide], for which the EC50 turned out to be 93 nM.
With `O=C(NCc1nnc(-c2ccccc2)s1)c1cn(C2CC2(F)F)nn1` (single isomer, unassigned) [Example 130, 1-(2,2-difluorocyclopropyl)-N-((5-phenyl-1,3,4-thiadiazol-2-yl)methyl)-1H-1,2,3-triazole-4-carboxamide], the EC50 was determined as 5 nM.
The same measure for `O=C(NCc1nnc(-c2ccccc2)s1)c1cn(C2CC2(F)F)nn1` (single isomer, unassigned) [Example 131, 1-(2,2-difluorocyclopropyl)-N-((5-phenyl-1,3,4-thiadiazol-2-yl)methyl)-1H-1,2,3-triazole-4-carboxamide]: 54 nM; for `CC1CC1n1cc(C(=O)NCc2nnc(-c3ccccc3)s2)nn1` (single isomer, unassigned) [Example 132, Cis-1-(2-methylcyclopropyl)-N-((5-phenyl-1,3,4-thiadiazol-2-yl)methyl)-1H-1,2,3-triazole-4-carboxamide]: 7 nM.
The same measure for `CC1CC1n1cc(C(=O)NCc2nnc(-c3ccccc3)s2)nn1` (single isomer, unassigned) [Example 133, Cis-1-(2-methylcyclopropyl)-N-((5-phenyl-1,3,4-thiadiazol-2-yl)methyl)-1H-1,2,3-triazole-4-carboxamide]: 92 nM.
To `O=C(NCc1nnc(-c2ccccc2)s1)c1cn(CC(O)C(F)F)nn1` (single isomer, unassigned) [Example 138, 1-(3,3-difluoro-2-hydroxypropyl)-N-((5-phenyl-1,3,4-thiadiazol-2-yl)methyl)-1H-1,2,3-triazole-4-carboxamide] belongs 25 nM.
Regarding `O=C(NCc1nnc(-c2ccccc2)s1)c1cn(CC(O)C(F)F)nn1` (single isomer, unassigned) [Example 139, 1-(3,3-difluoro-2-hydroxypropyl)-N-((5-phenyl-1,3,4-thiadiazol-2-yl)methyl)-1H-1,2,3-triazole-4-carboxamide], the EC50 is 123 nM.
Regarding `O=C(NCc1nnc(-c2ccccc2)s1)c1cn([C@@H]2C[C@H]2CO)nn1` (single isomer, unassigned) [Example 141, Trans-1-(2-(hydroxymethyl)cyclopropyl)-N-((5-phenyl-1,3,4-thiadiazol-2-yl)methyl)-1H-1,2,3-triazole-4-carboxamide], the concentration giving a half-maximal response (EC50) came out at 5 nM.
On to `O=C(NCc1nnc(-c2ccccc2)s1)c1cn([C@@H]2C[C@H]2CO)nn1` (single isomer, unassigned) [Example 142, Trans-1-(2-(hydroxymethyl)cyclopropyl)-N-((5-phenyl-1,3,4-thiadiazol-2-yl)methyl)-1H-1,2,3-triazole-4-carboxamide], for which the EC50 is 33 nM.
To `O=C(NCc1nnc(-c2ccccc2)s1)c1cn(C2C[C@@H]2C(F)F)nn1` (single isomer, unassigned) [Example 143, Trans-1-(-2-(difluoromethyl)cyclopropyl]-N-[(5-phenyl-1,3,4-thiadiazol-2-yl)methyl]-1H-1,2,3-triazole-4-carboxamide] belongs 179 nM.
The same measure for `O=C(NCc1nnc(-c2ccccc2)s1)c1cn(C2C[C@@H]2C(F)F)nn1` (single isomer, unassigned) [Example 144, Trans-1-(-2-(difluoromethyl)cyclopropyl]-N-[(5-phenyl-1,3,4-thiadiazol-2-yl)methyl]-1H-1,2,3-triazole-4-carboxamide]: 383 nM.
